Data as given in patent US7687465B2, “Therapeutic cancer vaccine” (Kraeftens Bekaempelse, priority 2003, dated 2010).
Ends that are not written are not given here.

How the values were obtained:
[1] = tested on: peripheral blood T cells or TIL from melanoma patients; experiment: ELISPOT IFN-γ secretion assay, T-cell responses against HLA-A2 binding ML-IAP peptides; type: cell-based, human; conditions: for strength of spontaneous CTL response: TIL and PBL from melanoma patients, in words; for TIL samples in which a response against the peptide was detected: TIL from melanoma patients (n=22); for TIL samples in which a response against the peptide was detected / PBL samples in which a response against the peptide was detected: stimulated once in vitro with peptide, number of samples; for PBL samples in which a response against the peptide was detected: peripheral blood T cells from melanoma patients (n=7)
Experimental: Peripheral blood was obtained from melanoma patients before vaccination and subsequent to a series of vaccinations. In order to identify peptide-specific T-cell precursors, peripheral blood lymphocytes (PBL) were used directly in the ELISPOT (designated direct ELISPOT). However, to extend the sensitivity of the ELISPOT assay, PBL were stimulated once in vitro prior to analysis^17,18. At day 0, PBL or crushed lymph nodes were thawed and plated in 2 ml/well at a concentration of 2×10^6 cells in 24-well plates (Nunc, Denmark) in X-vivo medium (Bio Whittaker, Walkersville, Md.), 5% heat-inactivated human serum, and 2 mM of L-glutamine in the presence of 10 μM of peptide. Two days later 20 IU/ml recombinant interleukin-2 (IL-2) (Chiron, Ratingen, Germany) was added to the cultures. The cultured cells were tested for reactivity in the ELISPOT on day 8.
The ELISPOT assay used to quantify peptide epitope specific interferon-7 releasing effector cells was adapted from Lalvani et al.^37, and Scheibenbogen et al.^38. Briefly, nitrocellulose bottomed 96-well plates (MultiScreen MAIP N45, Millipore) were coated overnight at 4° C. with 7.5 μg/ml of anti-IFN-γ antibody (1-D1K, Mabtech, Sweden) in 75 μl sterile PBS. Subsequently, the wells were washed six times with PBS, and non-specific binding were blocked by X-vivo medium for 2 hours at 37° C. Freshly isolated PBL or cells, which had been stimulated once in vitro, were added in duplicates at different cell concentrations (from 10^6 to 10^5 cells per well for non-stimulated PBL, and from 3×10^5-3×10^4 cells per well for PBL which had been stimulated once in vitro), in 100 μl X-vivo medium. Peptides were then added to each well to a final concentration of 2 μM and incubated overnight at 37° C.
The following day, media was discarded and the wells were washed (six times) with PBS containing 0.05% Tween (PBS/Tw) before the addition of biotinylated secondary antibody (7-B6-1-Biotin, Mabtech) at 0.5 μg/ml in 75 μl PBS containing 1% BSA and 0.02% NaN3 (PBS/BSA). The plates were incubated at room temperature for 2 hours. The wells were washed (six times) with PBS/Tw. Then 75 μl of Avidin-enzyme conjugate (AP-Avidin, Calbiochem) diluted 1:2000 in PBS/BSA were added to each well and incubated for 1 hour. The enzyme substrate NBT/BCIP was prepared freshly according to the manufacturers' instructions (Gibco, code 18280-016) and 75 μl were added to each well and incubated for 5-10 min. The reaction was terminated by washing with tap-water upon the emergence of dark purple spots. The spots were then counted using the AlphaImager System (Alpha Innotech, San Leandro, Calif., USA) and the peptide specific CTL frequency could be calculated as the number of spot-forming cells.
To extend the sensitivity of the ELISPOT assay, PBL were stimulated once in vitro prior to analysis^17,18. At day 0, PBL or crushed lymph nodes were thawed and plated in 2 ml/well at a concentration of 2×10^6 cells in 24-well plates (Nunc, Denmark) in X-vivo medium (Bio Whittaker, Walkersville, Md.), 5% heat-inactivated human serum, and 2 mM of L-glutamine in the presence of 10 μM of peptide. Two days later 20 IU/ml recombinant interleukin-2 (IL-2) (Chiron, Ratingen, Germany) was added to the cultures. The cultured cells were tested for reactivity in the ELISPOT on day 12.
The ELISPOT assay used to quantify peptide epitope-specific interferon-γ-releasing effector cells was performed as described previously^19. Briefly, nitrocellulose bottomed 96-well plates (MultiScreen MAIP N45, Millipore, Hedehusene, Denmark) were coated with anti-IFN-7 antibody (1-D1K, Mabtech, Nacka, Sweden). The wells were washed, blocked by X-vivo medium, and cells were added in duplicates at different cell concentrations. Peptides were then added to each well and the plates were incubated overnight. The following day, media was discarded and the wells were washed prior to addition of biotinylated secondary antibody (7-B6-1-Biotin, Mabtech). […]

HLA-A2 = target: T1, HLA-A2 (Homo sapiens, UniProt P04439, D140Y/D185E/D98H/E176V/E277Q/G131W/G231S/I119V/I121R/I166T/I218V/L300P/L318F/N151K/N90K/P208A/P217A/Q86G/Q94H/R138H/R169H/T345S); experiment: Assembly assay for peptide binding to class I MHC molecules; conditions: concentration of the peptide required for half maximal binding to HLA-A2; for EC50: read-out: C50
T1 construct: stabilization of the class 1 molecule after loading of peptide to the peptide transporter deficient cell line T2; endogenous in cells; host or cells: T2 (TAP-deficient human cell line), metabolically labelled with [35S]-methionine and lysed
Experimental: Assembly assays for binding of the synthetic peptides to class I MHC molecules metabolically labeled with [^35S]-methionine can be carried out as described below. It will be appreciated by the person skilled in the art that the protocol may be adopted for any peptide and any class I MHC molecule.
Briefly, TAP deficient cells were metabolically labeled with [^35S]-methionine (Amersham, Freiburg, Germany). The cells were lyzed in 0.5 ml lysis buffer (150 mM NaCl, 50 mM TrisHCl, 0.5% NP-40 (Fluka, Buchs, Switzerland), 5 mM EDTA, pH 7.5) with 0.5% Mega-9 (Sigma, St. Louis, USA) in the presence of protease inhibitors (2 mM PMSF, 5 mM iodoacetamide, 2 μg/ml pepstatin, 2 μg/ml leupeptin) with or without synthetic peptide (for a list of positive control peptides, see Table 2).
After 20 min of incubation, the cell nuclei were removed by centrifugation (5 min, 10,000 g) and 50 μl (10% v/v) freshly washed Staphylococcus aureus organisms (Pansorbin, Calbiochem, Nottingham, UK). The next day Pansorbin was removed by centrifugation (12 min, 16,000 g) and the appropriate monoclonal antibody was added at a final concentration of 10 μg/ml, incubated for 90 min, followed by addition of protein A-Sepharose (75 μl, 10% v/v) and incubation for 1 h. The beads were washed 4 times and stored at −20° C. until analysis by electrophoresis.
In the case of an assembly assay with the HLA class I-specific conformation-dependent monoclonal antibody W6/32, samples were eluted in reducing buffer (9.5 M urea, 2% NP-40, 5% 2-mercaptoethanol, 2% Ampholines, pH range 3.5-9.5 (Pharmacia Biotech, Uppsala, Sweden)) and focused for 16 h at 880 V on 5.5% polyacrylamide isoelectric focusing (IEF) gels^20,39.
Samples from assembly assays with allele-specific antibodies were eluted by boiling (5 min) in SDS reducing buffer (50 mM TrisHCl pH 6.8, 2% SDS, 5% 2-mercaptoethanol, 10% glycerol, 2.5% bromophenol blue) and electrophorezed on 12% SDS-PAGE gels (1 h at 200 V). All gels were fixed in 10% acetic acid with 5% methanol and dried onto 3 MM paper (Whatman, Maidstone, UK). MHC heavy chain bands were quantified using the Imagequant Phosphorimager program (Molecular Dynamics, Sunnyvale, Calif., USA). The intensity of the band is directly related to the amount of peptide-bound class I MHC complex recovered during the assay. C50 value (μM) as the concentration of the peptide required for half maximal binding to MHC may thus be determined. The binding affinities of the analysed peptides are determined according to their efficiency of stabilising the HLA class I molecules. The binding affinity is represented as the peptide concentration required to reach half-maximal stabilistation of appropriate HLA-molecule.
Assembly assays for binding of the synthetic peptides to class I MHC molecules metabolically labeled with [^35S]-methionine were carried out as described^15,16. The assembly assay is based on stabilization of the class 1 molecule after loading of peptide to the peptide transporter deficient cell line T2. Subsequently correctly folded stable MHC heavy chains are immunoprecipitated using conformation-dependent antibodies. After IEF electrophoresis, gels were exposed to phosphorImager screens, and peptide binding was quantitated using the Imagequant PhosphorImager program (Molecular Dynamics, Sunnyvale, Calif.).

**Q.** For `CC(C)C[C@H](NC(=O)[C@@H]1CCCN1C(=O)[C@H](Cc1c[nH]c2ccccc12)NC(=O)[C@H](CC(=O)O)NC(=O)[C@H](Cc1ccc(O)cc1)NC(=O)[C@H](Cc1ccccc1)NC(=O)[C@H](CO)NC(=O)[C@H](C)NC(=O)[C@H](CC(C)C)NC(=O)[C@@H](N)CCCNC(=N)N)C(=O)O` [ML-IAP90], which “strength of spontaneous CTL response” value [1] is on record?
**A.** Weaker spontaneous responses

**Q.** And the “TIL samples in which a response against the peptide was detected” value [1]?
**A.** seven

**Q.** And the “PBL samples in which a response against the peptide was detected” value [1]?
**A.** two

**Q.** What about the EC50 (HLA-A2) of the same compound?
**A.** 0.2 µM

**Q.** With `CC(C)C[C@H](NC(=O)CNC(=O)[C@H](CC(C)C)NC(=O)[C@@H](NC(=O)[C@@H]1CCCN1C(=O)[C@H](CO)NC(=O)CNC(=O)[C@H](CC(C)C)NC(=O)[C@@H](N)CO)C(C)C)C(=O)O` [ML-IAP34] as the compound, how does the EC50 (HLA-A2) read?
**A.** 1 µM

**Q.** SIVFVPCG [ML-IAP261] was tested. Which “C50 (μM)” value (HLA-A2; listed as MLIAP261) did it give?
**A.** did not bind

**Q.** What does the source list for `CC(C)C[C@H](NC(=O)[C@@H](N)C(C)C)C(=O)N[C@@H](CCC(=O)O)C(=O)N1CCC[C@H]1C(=O)N1CCC[C@H]1C(=O)NCC(=O)N[C@@H](C)C(=O)N[C@@H](CCCNC(=N)N)C(=O)N[C@@H](CC(=O)O)C(=O)N[C@H](C(=O)O)C(C)C` [ML-IAP230]?
**A.** strength of spontaneous CTL response [1]: Weaker spontaneous responses; TIL samples in which a response against the peptide was detected [1]: six; PBL samples in which a response against the peptide was detected [1]: two; C50 (μM) (HLA-A2): not able to stabilize the HLA-A2 molecule; EC50 (HLA-A2): > 100 µM

**Q.** Which “C50 (μM)” value (HLA-A2; listed as MLIAP200) does the source give for ELPTPRREV [ML-IAP200] here?
**A.** did not bind

**Q.** `CC(C)C[C@H](NC(=O)[C@H](CCC(=O)O)NC(=O)[C@@H]1CCCN1C(=O)[C@@H]1CCCN1C(=O)[C@@H](NC(=O)[C@H](CCC(=O)O)NC(=O)[C@H](C)NC(=O)[C@@H](NC(=O)[C@@H](N)CC(C)C)[C@@H](C)O)C(C)C)C(=O)O` [ML-IAP99] was tested. Which EC50 (HLA-A2) did it give?
**A.** 0.9 µM

**Q.** With `CC(C)C[C@H](NC(=O)[C@@H](N)CC(C)C)C(=O)N[C@@H](CCCNC(=N)N)C(=O)N[C@@H](CO)C(=O)N[C@@H](CCCCN)C(=O)NCC(=O)N[C@@H](CCCNC(=N)N)C(=O)N[C@@H](CC(=O)O)C(=O)N[C@@H](Cc1ccccc1)C(=O)N[C@H](C(=O)O)C(C)C` [ML-IAP154] as the compound, how does the EC50 (HLA-A2) read?
**A.** 10 µM

**Q.** With `CC[C@H](C)[C@H](NC(=O)[C@@H](N)CCC(N)=O)C(=O)N[C@@H](CC(C)C)C(=O)NCC(=O)N[C@@H](CCC(N)=O)C(=O)N[C@@H](CC(C)C)C(=O)N[C@@H](CCCNC(=N)N)C(=O)N1CCC[C@H]1C(=O)N[C@@H](CC(C)C)C(=O)O` [ML-IAP54] as the compound, how does the EC50 (HLA-A2) read?
**A.** 1 µM

**Q.** `CSCC[C@H](NC(=O)CN)C(=O)NCC(=O)N[C@@H](CO)C(=O)N[C@@H](CCC(=O)O)C(=O)N[C@@H](CCC(=O)O)C(=O)N[C@@H](CC(C)C)C(=O)N[C@@H](CCCNC(=N)N)C(=O)N[C@@H](CC(C)C)C(=O)O` [ML-IAP83] was tested. Which EC50 (HLA-A2) did it give?
**A.** 30 µM

**Q.** `CC(C)C[C@H](NC(=O)[C@H](CCC(=O)O)NC(=O)[C@@H]1CCCN1C(=O)[C@@H]1CCCN1C(=O)[C@@H](NC(=O)[C@H](CCC(=O)O)NC(=O)[C@H](C)NC(=O)[C@@H](NC(=O)[C@H](CC(C)C)NC(=O)[C@@H]1CCCN1)[C@@H](C)O)C(C)C)C(=O)O` [ML-IAP98] was tested. Which EC50 (HLA-A2) did it give?
**A.** > 100 µM

**Q.** For `CC[C@H](C)[C@H](NC(=O)[C@@H]1CCCN1C(=O)[C@H](CS)NC(=O)[C@H](CC(C)C)NC(=O)[C@@H](N)CCC(N)=O)C(=O)N[C@@H](CS)C(=O)N[C@@H](CCCNC(=N)N)C(=O)N[C@@H](C)C(=O)N1CCC[C@H]1C(=O)N[C@H](C(=O)O)C(C)C` [ML-IAP280], which EC50 (HLA-A2) is on record?
**A.** 20 µM
